{"source": "ChEMBL document CHEMBL5055665", "about": "“Discovery of the Triazolo[1,5-a]Pyrimidine-Based Derivative WS-898 as a Highly Efficacious and Orally Bioavailable ABCB1 Inhibitor Capable of Overcoming Multidrug Resistance” (J Med Chem, 2021)", "key": {"HEK293 [1]": {"system": "HEK293", "experiment": "Reversal of resistance to paclitaxel-induced cytotoxicity in human HEK293/ABCB1 cells assessed as reduction in paclitaxel IC50 at 2 uM preincubated for 4 hrs followed by paclitaxel addition and measured after 72 hrs by MTT assay (reference value: 91.40 +/- 23.32 nM)", "format": "functional, cell-based"}, "Mus musculus [2]": {"system": "Mus musculus", "experiment": "Toxicity in BALB/c mouse xenografted with human SW-620/AD300 cells assessed as change in body weight at 30 mg/kg/day, ig administered 21 days in presence of paclitaxel", "format": "organism-based", "details": "in vivo, po, 504 h, time 21 day"}, "[3]": {"experiment": "Volume of distribution at steady state in Sprague-Dawley rat at 10 mg/kg, iv measured up to 24 hrs by LC-MS/MS analysis", "format": "ADME, organism-based", "details": "in vivo, read-out: Vdss"}, "SW-620 [4]": {"system": "SW-620", "experiment": "Reversal of resistance to paclitaxel-induced cytotoxicity in human SW-620/AD300 cells assessed as reversal fold at 1 uM preincubated for 4 hrs followed by paclitaxel addition and measured after 72 hrs by MTT assay relative to paclitaxel", "format": "functional", "details": "time 76 hrs"}, "SW-620 [5]": {"system": "SW-620", "experiment": "Reversal of resistance to paclitaxel-induced cytotoxicity in human SW-620/AD300 cells assessed as reduction in paclitaxel IC50 at 2 uM preincubated for 4 hrs followed by paclitaxel addition and measured after 72 hrs by MTT assay (reference value: 4.23 +/- 0.50 uM)", "format": "functional, cell-based"}, "SW-620 [6]": {"system": "SW-620", "experiment": "Antitumor activity against human SW-620/AD300 cells xenografted in BALB/c nude mouse assessed as increase in tumor cell apoptosis at 30 mg/kg/day, ig administered for 21 days in presence of paclitaxel by TUNEL staining based fluorescence microscopy", "format": "functional, organism-based", "details": "time 21.0 day"}, "[7]": {"experiment": "Clearance in Sprague-Dawley rat at 10 mg/kg, iv measured up to 24 hrs by LC-MS/MS analysis", "format": "ADME, organism-based", "details": "in vivo"}, "HEK293 [8]": {"system": "HEK293", "experiment": "Reversal of resistance to paclitaxel-induced cytotoxicity in human HEK293/pcDNA3.1 cells assessed as reversal fold at 2 uM preincubated for 4 hrs followed by paclitaxel addition and measured after 72 hrs by MTT assay", "format": "functional", "details": "time 76 hrs"}, "[9]": {"experiment": "AUClast in Sprague-Dawley rat at 10 mg/kg, iv measured up to 24 hrs by LC-MS/MS analysis", "format": "ADME, organism-based", "set-up": "dose 10 mg/kg, time < 24 hrs, route iv", "details": "in vivo"}, "HEK293 [10]": {"system": "HEK293", "experiment": "Reversal of resistance to paclitaxel-induced cytotoxicity in human HEK293/pcDNA3.1 cells assessed as reduction in paclitaxel IC50 at 2 uM preincubated for 4 hrs followed by paclitaxel addition and measured after 72 hrs by MTT assay (reference value: 1.93 +/- 0.06 nM)", "format": "functional, cell-based"}, "HEK293 [11]": {"system": "HEK293", "experiment": "Reversal of resistance to paclitaxel-induced cytotoxicity in human HEK293/ABCB1 cells assessed as reversal fold at 1 uM preincubated for 4 hrs followed by paclitaxel addition and measured after 72 hrs by MTT assay relative to paclitaxel", "format": "functional", "details": "time 76 hrs"}, "SW-620 [12]": {"system": "SW-620", "experiment": "Antitumor activity against human SW-620/AD300 cells xenografted in BALB/c nude mouse assessed as increase in cells with nuclear pyknosis at 30 mg/kg/day, ig administered for 21 days in presence of paclitaxel by TUNEL staining based fluorescence microscopy", "format": "functional, organism-based", "details": "time 21.0 day"}, "SW-620 [13]": {"system": "SW-620", "experiment": "Reversal of resistance to paclitaxel-induced cytotoxicity in human SW-620 cells assessed as reversal fold at 1 uM preincubated for 4 hrs followed by paclitaxel addition and measured after 72 hrs by MTT assay relative to paclitaxel", "format": "functional", "details": "time 76 hrs"}, "[14]": {"experiment": "MRTlast in Sprague-Dawley rat at 10 mg/kg, iv measured up to 24 hrs by LC-MS/MS analysis", "format": "ADME, organism-based", "details": "in vivo"}, "KB 3-1 [15]": {"system": "KB 3-1", "experiment": "Reversal of resistance to paclitaxel-induced cytotoxicity in human KB 3-1 cells assessed as reduction in paclitaxel IC50 at 1 uM preincubated for 4 hrs followed by paclitaxel addition and measured after 72 hrs by MTT assay (reference value: 4.54 +/- 1.59 nM)", "format": "functional, cell-based"}, "HEK293 [16]": {"system": "HEK293", "experiment": "Reversal of resistance to paclitaxel-induced cytotoxicity in human HEK293/pcDNA3.1 cells assessed as reduction in paclitaxel IC50 at 1 uM preincubated for 4 hrs followed by paclitaxel addition and measured after 72 hrs by MTT assay (reference value: 1.93 +/- 0.06 nM)", "format": "functional, cell-based"}, "SW-620 [17]": {"system": "SW-620", "experiment": "Reversal of resistance to paclitaxel-induced cytotoxicity in human SW-620/AD300 cells assessed as reduction in paclitaxel IC50 at 1 uM preincubated for 4 hrs followed by paclitaxel addition and measured after 72 hrs by MTT assay (reference value: 4.23 +/- 0.50 uM)", "format": "functional, cell-based"}, "Mus musculus [18]": {"system": "Mus musculus", "experiment": "Toxicity in BALB/c mouse xenografted with human SW-620/AD300 cells assessed as mortality at 30 mg/kg/day, ig administered 21 days in presence of paclitaxel", "format": "organism-based", "details": "in vivo, po, 504 h, time 21 day"}, "HEK293 [19]": {"system": "HEK293", "experiment": "Reversal of resistance to paclitaxel-induced cytotoxicity in human HEK293/ABCB1 cells assessed as reversal fold at 2 uM preincubated for 4 hrs followed by paclitaxel addition and measured after 72 hrs by MTT assay relative to paclitaxel", "format": "functional", "details": "time 76 hrs"}, "SW-620 [20]": {"system": "SW-620", "experiment": "Reversal of resistance to paclitaxel-induced cytotoxicity in human SW-620 cells assessed as reversal fold at 2 uM preincubated for 4 hrs followed by paclitaxel addition and measured after 72 hrs by MTT assay relative to paclitaxel", "format": "functional", "details": "time 76 hrs"}, "KB-C2 [21]": {"system": "KB-C2", "experiment": "Reversal of resistance to paclitaxel-induced cytotoxicity in human KB-C2 cells assessed as reversal fold at 2 uM preincubated for 4 hrs followed by paclitaxel addition and measured after 72 hrs by MTT assay relative to paclitaxel", "format": "functional", "details": "time 76 hrs"}, "SW-620 [22]": {"system": "SW-620", "experiment": "Antitumor activity against human SW-620/AD300 cells xenografted in BALB/c nude mouse assessed as tumor growth inhibition at 30 mg/kg/day, ig administered for 21 days", "format": "functional", "set-up": "scale not given: the % may be the effect or the level left", "details": "time 21 day"}, "KB-C2 [23]": {"system": "KB-C2", "experiment": "Reversal of resistance to paclitaxel-induced cytotoxicity in human KB-C2 cells assessed as reduction in paclitaxel IC50 at 2 uM preincubated for 4 hrs followed by paclitaxel addition and measured after 72 hrs by MTT assay (reference value: 1886.37 +/- 243.05 nM)", "format": "functional, cell-based"}, "KB-C2 [24]": {"system": "KB-C2", "experiment": "Reversal of resistance to paclitaxel-induced cytotoxicity in human KB-C2 cells assessed as reduction in paclitaxel IC50 at 1 uM preincubated for 4 hrs followed by paclitaxel addition and measured after 72 hrs by MTT assay (reference value: 1886.37 +/- 243.05 nM)", "format": "functional, cell-based"}, "Mus musculus [25]": {"system": "Mus musculus", "experiment": "Toxicity in BALB/c mouse xenografted with human SW-620/AD300 cells assessed as mortality at 30 mg/kg/day, ig administered 21 days", "format": "organism-based", "details": "in vivo, po, 504 h, time 21 day"}, "KB 3-1 [26]": {"system": "KB 3-1", "experiment": "Reversal of resistance to paclitaxel-induced cytotoxicity in human KB 3-1 cells assessed as reduction in paclitaxel IC50 at 2 uM preincubated for 4 hrs followed by paclitaxel addition and measured after 72 hrs by MTT assay (reference value: 4.54 +/- 1.59 nM)", "format": "functional, cell-based"}, "Mus musculus [27]": {"system": "Mus musculus", "experiment": "Toxicity in BALB/c mouse xenografted with human SW-620/AD300 cells assessed as change in body weight at 30 mg/kg/day, ig administered 21 days", "format": "organism-based", "details": "in vivo, po, 504 h, time 21 day"}, "Mus musculus [28]": {"system": "Mus musculus", "experiment": "Hepatotoxicity in BALB/c mouse xenografted with human SW-620/AD300 cells at 30 mg/kg/day, ig administered for 21 days in presence of paclitaxel", "format": "toxicity, organism-based", "details": "in vivo, po, 504 h, time 21 day"}, "[29]": {"experiment": "AUCinfinity in Sprague-Dawley rat at 10 mg/kg, iv measured up to 24 hrs by LC-MS/MS analysis", "format": "ADME, organism-based", "set-up": "dose 10 mg/kg, time < 24 hrs, route iv", "details": "in vivo"}}, "note": "pIC50: −log10 of the molar value. Active and inactive are the calls of the source. No cut-off for these calls is given here."}
{"smiles": "Cc1cc(Nc2ccc(C(=O)/C=C/c3ccc4ccccc4c3)cc2)n2nc(SCc3nc4ccccc4[nH]3)nc2n1", "values": [{"measurement": "pIC50", "setting": "HEK293 [1]", "value": 8.43}, {"measurement": "Activity", "setting": "Mus musculus [2]", "value": "Non-Toxic"}, {"measurement": "Vd", "setting": "[3]", "value": 0.114, "unit": "L/kg"}, {"measurement": "fold change (FC)", "setting": "SW-620 [4]", "value": 150.38}, {"measurement": "pIC50", "setting": "SW-620 [5]", "value": 8.30}, {"measurement": "Activity", "setting": "SW-620 [6]", "value": "Active"}, {"measurement": "clearance", "setting": "[7]", "value": 17.7, "unit": "mL/min/kg"}, {"measurement": "fold change (FC)", "setting": "HEK293 [8]", "value": 1.47}, {"measurement": "AUC(0-t) at 24 h", "setting": "[9]", "value": 9440, "unit": "ng·h/mL"}, {"measurement": "pIC50", "setting": "HEK293 [10]", "value": 8.88}, {"measurement": "fold change (FC)", "setting": "HEK293 [11]", "value": 9.92}, {"measurement": "Activity", "setting": "SW-620 [12]", "value": "Active"}, {"measurement": "fold change (FC)", "setting": "SW-620 [13]", "value": 1.06}, {"measurement": "MRT last at 24 h", "setting": "[14]", "value": 5.76, "unit": "min"}, {"measurement": "pIC50", "setting": "KB 3-1 [15]", "value": 8.39}, {"measurement": "pIC50", "setting": "HEK293 [16]", "value": 8.77}, {"measurement": "pIC50", "setting": "SW-620 [17]", "value": 7.55}, {"measurement": "Activity", "setting": "Mus musculus [18]", "value": "Non-Toxic"}, {"measurement": "fold change (FC)", "setting": "HEK293 [19]", "value": 24.84}, {"measurement": "fold change (FC)", "setting": "SW-620 [20]", "value": 1.1}, {"measurement": "fold change (FC)", "setting": "KB-C2 [21]", "value": 513.99}, {"measurement": "Activity", "setting": "SW-620 [22]", "value": 30, "unit": "%"}, {"measurement": "pIC50", "setting": "KB-C2 [23]", "value": 8.44}, {"measurement": "pIC50", "setting": "KB-C2 [24]", "value": 7.80}, {"measurement": "Activity", "setting": "Mus musculus [25]", "value": "Non-Toxic"}, {"measurement": "pIC50", "setting": "KB 3-1 [26]", "value": 8.45}, {"measurement": "Activity", "setting": "Mus musculus [27]", "value": "Non-Toxic"}, {"measurement": "Activity", "setting": "Mus musculus [28]", "value": "Non-Toxic"}, {"measurement": "AUC(0-inf)", "setting": "[29]", "value": 9450, "unit": "ng·h/mL"}]}
